Results as given in PMC10772362 (RSC Advances, 2024).
Where “and” joins values, the source holds several entries; their conditions need not be identical. Identical values can stand only once.

Legend:
[1] = test system: A549 (human lung adenocarcinoma) cell line; test: MTT cytotoxicity assay, A549 cells; conditions: for IC50: Homo sapiens, A549, 72 h, read-out: IC50, A549; for Selective index, A549: ratio IC50 in Hek-293 to IC50 in A549
[2] = test system: HepG2 (human hepatocellular carcinoma) cell line; test: MTT cytotoxicity assay, HepG2 cells; conditions: for IC50: Homo sapiens, HepG2, 72 h, read-out: IC50, HepG2; for Selective index, HepG2: ratio IC50 in Hek-293 to IC50 in HepG2
[3] = test system: KB (human mouth epidermal carcinoma) cell line; test: MTT cytotoxicity assay, KB cells; conditions: for IC50: Homo sapiens, KB, 72 h, read-out: IC50, KB; for Selective index, KB: ratio IC50 in Hek-293 to IC50 in KB
[4] = test system: Hek-293 (human embryonic kidney 293) cell line; test: MTT cytotoxicity assay, normal Hek-293 cells; conditions: HEK293, 72 h, read-out: IC50, Hek-293
[5] = test system: MCF7 (human breast adenocarcinoma) cell line; test: MTT cytotoxicity assay, MCF7 cells; conditions: for IC50: Homo sapiens, MCF7, 72 h, read-out: IC50, MCF7; for Selective index, MCF7: ratio IC50 in Hek-293 to IC50 in MCF7
[6] = test system: KB, A549, and HepG2 cell lines; test: MTT cytotoxicity assay, summary over KB, A549 and HepG2; conditions: Homo sapiens, read-out: IC50 values ranging over KB, A549, and HepG2 cell lines

O=C1OCC2=C1C(c1cnc(Cl)s1)C1=C(N2)C(=O)c2ccccc2C1=O (stereo not drawn) [Compound 13h, 11-(2-Chlorothiazol-5-yl)-4,11-dihydrobenzo[g]furo[3,4-b]quinolin-1,5,10(3H)-trione]
IC50 [1]: 0.16 ± 0.02 µM | Selective index, A549 [1]: 8.55 | IC50 [2]: 0.81 ± 0.11 µM | Selective index, HepG2 [2]: 1.71 | IC50 [3]: 1.12 ± 0.1 µM | Selective index, KB [3]: 1.23 | IC50 [4]: 1.38 ± 0.18 µM | IC50 [5]: 1.07 ± 0.1 µM | Selective index, MCF7 [5]: 1.29

O=C1OCC2=C1C(c1ccc(Br)o1)C1=C(N2)C(=O)c2ccccc2C1=O (stereo not drawn) [Compound 13d, 11-(5-Bromofuran-2-yl)-4,11-dihydrobenzo[g]furo[3,4-b]quinolin-1,5,10(3H)-trione]
IC50 [1]: 2.06 ± 0.22 µM | Selective index, A549 [1]: 18.00 | IC50 [2]: 0.3 ± 0.06 µM | Selective index, HepG2 [2]: 122 and 122.40 | IC50 [3]: 2.81 ± 0.32 µM | Selective index, KB [3]: 13.19 | IC50 [4]: 37.1 ± 3.3 µM | IC50 [5]: 10.4 ± 1.29 µM | Selective index, MCF7 [5]: 3.58

Cc1c2ccncc2c(C)c2c1[nH]c1ccccc12 [Ellipticine, ellipticine, reference compound]
IC50 [1]: 1.42 ± 0.08 µM | Selective index, A549 [1]: 3.94 | IC50 [2]: 2.11 ± 0.16 µM | Selective index, HepG2 [2]: 2.65 | IC50 [3]: 1.95 ± 0.12 µM | Selective index, KB [3]: 2.88 | IC50 [4]: 5.6 ± 0.37 µM | IC50 [5]: 2.09 ± 0.16 µM | Selective index, MCF7 [5]: 2.68

O=C1OCC2=C1C(c1csc3ccccc13)C1=C(N2)C(=O)c2ccccc2C1=O (stereo not drawn) [Compound 13e, 11-(Benzo[b]thiophen-3-yl)-4,11-dihydrobenzo[g]furo[3,4-b]quinolin-1,5,10(3H)-trione]
IC50 [1]: 9.94 ± 0.73 µM | Selective index, A549 [1]: 1.12 | IC50 [2]: 10.4 ± 1.18 µM | Selective index, HepG2 [2]: 1.07 | IC50 [3]: 10.9 ± 1.4 µM | Selective index, KB [3]: 1.02 | IC50 [4]: 11.2 ± 0.85 µM | IC50 [5]: 13.1 ± 1.6 µM | Selective index, MCF7 [5]: 0.85

O=C1OCC2=C1C(c1ccn[nH]1)C1=C(N2)C(=O)c2ccccc2C1=O (stereo not drawn) [Compound 13j, 11-(1H-pyrazol-5-yl)-4,11-dihydrobenzo[g]furo[3,4-b]quinolin-1,5,10(3H)-trione]
IC50 [1]: 5.43 ± 0.39 µM | Selective index, A549 [1]: 0.69 | IC50 [2]: 4.35 ± 0.57 µM | Selective index, HepG2 [2]: 0.86 | IC50 [3]: 6 ± 0.63 µM | Selective index, KB [3]: 0.63 | IC50 [4]: 3.75 ± 0.69 µM | IC50 [5]: 3.24 ± 0.36 µM | Selective index, MCF7 [5]: 1.16

O=C1OCC2=C1C(c1coc3ccccc13)C1=C(N2)C(=O)c2ccccc2C1=O (stereo not drawn) [Compound 13f, 11-(Benzofuran-3-yl)-4,11-dihydrobenzo[g]furo[3,4-b]quinolin-1,5,10(3H)-trione]
IC50 [1]: 7.02 ± 0.91 µM | Selective index, A549 [1]: 2.81 | fold higher toxicity when compared with ellipticine, HepG2 [2]: ~1.8 fold | IC50 [2]: 1.3 ± 0.13 µM | Selective index, HepG2 [2]: 15.10 | fold higher toxicity when compared with ellipticine, KB [3]: ~1.8 fold | IC50 [3]: 1.1 ± 0.09 µM | Selective index, KB [3]: 17.98 | IC50 [4]: 19.7 ± 1.7 µM | IC50 [5]: 12.7 ± 1.2 µM | Selective index, MCF7 [5]: 1.56

O=C1OCC2=C1C(c1cc3ccccc3s1)C1=C(N2)C(=O)c2ccccc2C1=O (stereo not drawn) [Compound 13g, 11-(Benzo[b]thiophen-2-yl)-4,11-dihydrobenzo[g]furo[3,4-b]quinolin-1,5,10(3H)-trione]
IC50 [1]: 3.13 ± 0.2 µM | Selective index, A549 [1]: 4.18 | IC50 [2]: 12.7 ± 1.4 µM | Selective index, HepG2 [2]: 1.03 | IC50 [3]: 9.94 ± 0.65 µM | Selective index, KB [3]: 1.31 | IC50 [4]: 13.1 ± 1.7 µM | IC50 [5]: 11.3 ± 1.78 µM | Selective index, MCF7 [5]: 1.16

O=C1OCC2=C1C(c1ncccc1F)C1=C(N2)C(=O)c2ccccc2C1=O (stereo not drawn) [Compound 13l, 11-(3-Fluoropyridin-2-yl)-4,11-dihydrobenzo[g]furo[3,4-b]quinolin-1,5,10(3H)-trione]
IC50 [1]: 2.15 ± 0.25 µM | Selective index, A549 [1]: 4.74 | IC50 [2]: 5.52 ± 0.86 µM | Selective index, HepG2 [2]: 1.85 | IC50 [3]: 4.69 ± 0.58 µM | Selective index, KB [3]: 2.18 | IC50 [4]: 10.2 ± 1.24 µM | IC50 [5]: 7.34 ± 0.94 µM | Selective index, MCF7 [5]: 1.39

COc1ncc(C(F)(F)F)cc1C1C2=C(COC2=O)NC2=C1C(=O)c1ccccc1C2=O (stereo not drawn) [Compound 13m, 11-(2-Methoxy-5-(trifluoromethyl)pyridin-3-yl)-4,11-dihydrobenzo[g]furo[3,4-b]quinolin-1,5,10(3H)-trione]
IC50 [1]: 2.83 ± 0.54 µM | Selective index, A549 [1]: 5.92 | IC50 [2]: 5.83 ± 0.86 µM | Selective index, HepG2 [2]: 2.87 | IC50 [3]: 4.63 ± 1.04 µM | Selective index, KB [3]: 3.61 | IC50 [4]: 16.7 ± 1.94 µM | IC50 [5]: 7.26 ± 1.29 µM | Selective index, MCF7 [5]: 2.31

COc1cc(C2C3=C(COC3=O)NC3=C2C(=O)c2ccccc2C3=O)ccn1 (stereo not drawn) [Compound 13k, 11-(2-Methoxypyridin-4-yl)-4,11-dihydrobenzo[g]furo[3,4-b]quinolin-1,5,10(3H)-trione]
IC50 [6]: 0.23 to 0.27 µM | IC50 [1]: 0.27 ± 0.21 µM | Selective index, A549 [1]: 9.30 | IC50 [2]: 0.23 ± 0.02 µM | Selective index, HepG2 [2]: 10.81 | IC50 [3]: 0.27 ± 0.24 µM | Selective index, KB [3]: 9.30 | IC50 [4]: 2.48 ± 0.32 µM | IC50 [5]: 1.34 ± 0.16 µM | Selective index, MCF7 [5]: 1.86

O=C1OCC2=C1C(c1ccoc1)C1=C(N2)C(=O)c2ccccc2C1=O (stereo not drawn) [Compound 13b, 11-(Furan-3-yl)-4,11-dihydrobenzo[g]furo[3,4-b]quinolin-1,5,10(3H)-trione]
IC50 [1]: 3.09 ± 0.39 µM | Selective index, A549 [1]: 4.47 | IC50 [2]: 12.4 ± 1.29 µM | Selective index, HepG2 [2]: 1.12 | IC50 [3]: 10.1 ± 1.17 µM | Selective index, KB [3]: 1.37 | IC50 [4]: 13.8 ± 1.41 µM | IC50 [5]: 12.6 ± 1.14 µM | Selective index, MCF7 [5]: 1.09

Cc1c(C2C3=C(COC3=O)NC3=C2C(=O)c2ccccc2C3=O)cnn1C (stereo not drawn) [Compound 13i, 11-(1,5-Dimethyl-1H-pyrazol-4-yl)-4,11-dihydrobenzo[g]furo[3,4-b]quinolin-1,5,10(3H)-trione]
IC50 [1]: 2.27 ± 0.22 µM | Selective index, A549 [1]: 5.40 | IC50 [2]: 7.8 ± 0.53 µM | Selective index, HepG2 [2]: 1.57 | IC50 [3]: 10.7 ± 1.27 µM | Selective index, KB [3]: 1.14 | IC50 [4]: 12.3 ± 1.13 µM | IC50 [5]: 10.4 ± 0.8 µM | Selective index, MCF7 [5]: 1.18

O=C1OCC2=C1C(c1ccsc1)C1=C(N2)C(=O)c2ccccc2C1=O (stereo not drawn) [Compound 13a, 11-(Thiophen-3-yl)-4,11-dihydrobenzo[g]furo[3,4-b]quinolin-1,5,10(3H)-trione]
IC50 [1]: 0.48 ± 0.03 µM | Selective index, A549 [1]: 47.90 | IC50 [2]: 1.43 ± 0.15 µM | Selective index, HepG2 [2]: 16.00 | IC50 [3]: 1.43 ± 0.14 µM | Selective index, KB [3]: 16.00 | IC50 [4]: 22.9 ± 2.18 µM | IC50 [5]: 2.06 ± 0.66 µM | Selective index, MCF7 [5]: 11.12

O=C1OCC2=C1C(c1ccco1)C1=C(N2)C(=O)c2ccccc2C1=O (stereo not drawn) [Compound 13c, 11-(Furan-2-yl)-4,11-dihydrobenzo[g]furo[3,4-b]quinolin-1,5,10(3H)-trione]
IC50 [1]: 3.06 ± 0.27 µM | Selective index, A549 [1]: 4.75 | IC50 [2]: 3.75 ± 0.69 µM | Selective index, HepG2 [2]: 3.88 | IC50 [3]: 14.2 ± 1.23 µM | Selective index, KB [3]: 1.02 | IC50 [4]: 14.6 ± 1.35 µM | IC50 [5]: 12.2 ± 1.14 µM | Selective index, MCF7 [5]: 1.20
